Assay results published in ChEMBL document CHEMBL4308841, “Synthesis, in vitro antiproliferative activity, and kinase inhibitory effects of pyrazole-containing diarylureas and diarylamides” (Eur J Med Chem, 2018).

test system: DU-145; experiment: Growth inhibition of human DU145 cells assessed as cell growth at 10 uM incubated for 48 hrs by sulforhodamine B assay relative to control; type: functional; settings: DU-145, 48 h, read-out: Activity

| SMILES | growth at 10 µM |
| --- | --- |
| COc1cc(Cl)cc(-c2nn(-c3cccc(NC(=O)c4ccc(N5CCOCC5)c(C(F)(F)F)c4)c3)cc2-c2ccncc2)c1 | 93.3% |

test system: MDA-MB-468; experiment: Growth inhibition of human MDA-MB-468 cells assessed as cell growth at 10 uM incubated for 48 hrs by sulforhodamine B assay relative to control; type: functional; settings: MDA-MB-468, 48 h, read-out: Activity

| SMILES | growth at 10 µM |
| --- | --- |
| COc1cc(Cl)cc(-c2nn(-c3cccc(NC(=O)c4ccc(N5CCOCC5)c(C(F)(F)F)c4)c3)cc2-c2ccncc2)c1 | 50.2% |

test system: NCI/ADR-RES; experiment: Growth inhibition of human NCI/ADR-RES cells incubated for 48 hrs by sulforhodamine B assay; type: functional, cell-based; settings: read-out: GI50

| SMILES | GI50 |
| --- | --- |
| COc1cc(Cl)cc(-c2nn(-c3cccc(NC(=O)c4ccc(N5CCOCC5)c(C(F)(F)F)c4)c3)cc2-c2ccncc2)c1 | 5.17 µM |

same assay, conditions: read-out: LC50 (the source's name)

| SMILES | CC50 |
| --- | --- |
| COc1cc(Cl)cc(-c2nn(-c3cccc(NC(=O)c4ccc(N5CCOCC5)c(C(F)(F)F)c4)c3)cc2-c2ccncc2)c1 | > 100 µM |

same assay, conditions: read-out: TGI

| SMILES | TGI |
| --- | --- |
| COc1cc(Cl)cc(-c2nn(-c3cccc(NC(=O)c4ccc(N5CCOCC5)c(C(F)(F)F)c4)c3)cc2-c2ccncc2)c1 | > 100 µM |

same assay, conditions: read-out: pGI50 (converted)

| SMILES | GI50 |
| --- | --- |
| COc1cc(Cl)cc(-c2nn(-c3cccc(NC(=O)c4ccc(N5CCOCC5)c(C(F)(F)F)c4)c3)cc2-c2ccncc2)c1 | 6.17 µM |

same assay, conditions: read-out: pLC50 (the source's name) (converted)

| SMILES | CC50 |
| --- | --- |
| COc1cc(Cl)cc(-c2nn(-c3cccc(NC(=O)c4ccc(N5CCOCC5)c(C(F)(F)F)c4)c3)cc2-c2ccncc2)c1 | > 100 µM |

same assay, conditions: read-out: pTGI (converted)

| SMILES | TGI |
| --- | --- |
| COc1cc(Cl)cc(-c2nn(-c3cccc(NC(=O)c4ccc(N5CCOCC5)c(C(F)(F)F)c4)c3)cc2-c2ccncc2)c1 | > 100 µM |

test system: LOX IMVI; experiment: Growth inhibition of human LOXIMVI cells assessed as cell growth at 0.01 uM incubated for 48 hrs by sulforhodamine B assay relative to control; type: functional; settings: read-out: Activity

| SMILES | growth at 0.01 µM |
| --- | --- |
| COc1cc(Cl)cc(-c2nn(-c3cccc(NC(=O)c4ccc(N5CCOCC5)c(C(F)(F)F)c4)c3)cc2-c2ccncc2)c1 | 97% |

test system: MOLT-4; experiment: Growth inhibition of human MOLT4 cells assessed as cell growth at 0.1 uM incubated for 48 hrs by sulforhodamine B assay relative to control; type: functional; settings: MOLT-4, 48 h, read-out: Activity

| SMILES | growth at 0.1 µM |
| --- | --- |
| COc1cc(Cl)cc(-c2nn(-c3cccc(NC(=O)c4ccc(N5CCOCC5)c(C(F)(F)F)c4)c3)cc2-c2ccncc2)c1 | 90% |

test system: SF-295; experiment: Growth inhibition of human SF295 cells assessed as cell growth at 0.1 uM incubated for 48 hrs by sulforhodamine B assay relative to control; type: functional; settings: SF-295, 48 h, read-out: Activity

| SMILES | growth at 0.1 µM |
| --- | --- |
| COc1cc(Cl)cc(-c2nn(-c3cccc(NC(=O)c4ccc(N5CCOCC5)c(C(F)(F)F)c4)c3)cc2-c2ccncc2)c1 | 94% |

test system: SK-MEL-5; experiment: Growth inhibition of human SK-MEL-5 cells assessed as cell growth at 0.1 uM incubated for 48 hrs by sulforhodamine B assay relative to control; type: functional; settings: SK-MEL-5, 48 h, read-out: Activity

| SMILES | growth at 0.1 µM |
| --- | --- |
| COc1cc(Cl)cc(-c2nn(-c3cccc(NC(=O)c4ccc(N5CCOCC5)c(C(F)(F)F)c4)c3)cc2-c2ccncc2)c1 | 99% |

test system: PC-3; experiment: Growth inhibition of human PC3 cells assessed as cell growth at 0.1 uM incubated for 48 hrs by sulforhodamine B assay relative to control; type: functional; settings: PC-3, 48 h, read-out: Activity

| SMILES | growth at 0.1 µM |
| --- | --- |
| COc1cc(Cl)cc(-c2nn(-c3cccc(NC(=O)c4ccc(N5CCOCC5)c(C(F)(F)F)c4)c3)cc2-c2ccncc2)c1 | 95% |

test system: SK-MEL-5; experiment: Growth inhibition of human SK-MEL-5 cells assessed as cell growth at 1 uM incubated for 48 hrs by sulforhodamine B assay relative to control; type: functional; settings: SK-MEL-5, 48 h, read-out: Activity

| SMILES | growth at 1 µM |
| --- | --- |
| COc1cc(Cl)cc(-c2nn(-c3cccc(NC(=O)c4ccc(N5CCOCC5)c(C(F)(F)F)c4)c3)cc2-c2ccncc2)c1 | 50% |

test system: OVCAR-3; experiment: Growth inhibition of human OVCAR3 cells assessed as cell growth at 1 uM incubated for 48 hrs by sulforhodamine B assay relative to control; type: functional; settings: OVCAR-3, 48 h, read-out: Activity

| SMILES | growth at 1 µM |
| --- | --- |
| COc1cc(Cl)cc(-c2nn(-c3cccc(NC(=O)c4ccc(N5CCOCC5)c(C(F)(F)F)c4)c3)cc2-c2ccncc2)c1 | 100% |

test system: OVCAR-5; experiment: Growth inhibition of human OVCAR5 cells assessed as cell growth at 1 uM incubated for 48 hrs by sulforhodamine B assay relative to control; type: functional; settings: OVCAR-5, 48 h, read-out: Activity

| SMILES | growth at 1 µM |
| --- | --- |
| COc1cc(Cl)cc(-c2nn(-c3cccc(NC(=O)c4ccc(N5CCOCC5)c(C(F)(F)F)c4)c3)cc2-c2ccncc2)c1 | 75% |

test system: A549; experiment: Growth inhibition of human A549/ATCC cells assessed as cell growth at 100 uM incubated for 48 hrs by sulforhodamine B assay relative to control; type: functional; settings: A549, 48 h, read-out: Activity

| SMILES | growth at 100 µM |
| --- | --- |
| COc1cc(Cl)cc(-c2nn(-c3cccc(NC(=O)c4ccc(N5CCOCC5)c(C(F)(F)F)c4)c3)cc2-c2ccncc2)c1 | 25% |

test system: HT-29; experiment: Growth inhibition of human HT-29 cells assessed as cell growth at 100 uM incubated for 48 hrs by sulforhodamine B assay relative to control; type: functional; settings: HT-29, 48 h, read-out: Activity

| SMILES | growth at 100 µM |
| --- | --- |
| COc1cc(Cl)cc(-c2nn(-c3cccc(NC(=O)c4ccc(N5CCOCC5)c(C(F)(F)F)c4)c3)cc2-c2ccncc2)c1 | -17% |

test system: DU-145; experiment: Growth inhibition of human DU145 cells assessed as cell growth at 100 uM incubated for 48 hrs by sulforhodamine B assay relative to control; type: functional; settings: DU-145, 48 h, read-out: Activity

| SMILES | growth at 100 µM |
| --- | --- |
| COc1cc(Cl)cc(-c2nn(-c3cccc(NC(=O)c4ccc(N5CCOCC5)c(C(F)(F)F)c4)c3)cc2-c2ccncc2)c1 | 54% |
